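A five-concentration, 48-hour dose response in 96-well plates underlies each endpoint, interpolated linearly between surrounding concentrations. TGI is the concentration that stops growth completely.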
Assays:
Experiment in all cases: growth of human tumour cells (NCI), 48 h
[1] = system: CAKI-1 renal
[2] = system: KM12 colon
[3] = system: SN12C renal
[4] = system: NCI-H460 lung
[5] = system: MALME-3M melanoma
[6] = system: PC-3 prostate
[7] = system: MDA-MB-231 breast
[8] = system: SF-295 CNS
[9] = system: IGROV1 ovarian
[10] = system: HOP-62 NSCLC
[11] = system: HCT-116 colon
[12] = system: ACHN renal
[13] = system: RXF 393 renal
[14] = system: EKVX NSCLC
[15] = system: SW-620 colon
[16] = system: K-562 leukemia
[17] = system: SF-539 CNS
[18] = system: SK-MEL-2 melanoma
[19] = system: HCT-15 colon
[20] = system: SF-268 CNS
[21] = system: NCI-H226 lung
[22] = system: UACC-62 melanoma
[23] = system: OVCAR-5 ovarian
[24] = system: TK-10 renal
[25] = system: LOX IMVI melanoma
[26] = system: SNB-75 CNS
[27] = system: COLO 205 colon
[28] = system: MOLT-4 leukemia
[29] = system: SK-MEL-28 melanoma
[30] = system: A549 NSCLC
[31] = system: RPMI-8226 leukemia
[32] = system: HS 578T breast
[33] = system: OVCAR-4 ovarian
[34] = system: MDA-MB-435
[35] = system: U251 CNS
[36] = system: OVCAR-8 ovarian
[37] = system: CCRF-CEM leukemia
[38] = system: SNB-19 CNS
[39] = system: MCF7 breast
[40] = system: HT29 colon
[41] = system: HOP-92 NSCLC
[42] = system: NCI/ADR-RES ovarian
[43] = system: 786-0 renal
[44] = system: M14 melanoma
[45] = system: NCI-H522 lung
[46] = system: SK-OV-3 ovarian
[47] = system: HCC-2998 colon
[48] = system: UACC-257 melanoma
[49] = system: SK-MEL-5 melanoma
[50] = system: A498 renal
[51] = system: BT-549 breast

Cc1ccc(-c2c(C#N)c(-c3ccccc3)c(C#N)c(=O)n2NS(=O)(=O)c2ccc(C)cc2)cc1
TGI [1]: > 100 µM | TGI [2]: > 100 µM | TGI [3]: > 100 µM | TGI [4]: > 100 µM | TGI [5]: > 100 µM | TGI [6]: > 100 µM | TGI [7]: > 100 µM | TGI [8]: > 100 µM | TGI [9]: > 100 µM | TGI [10]: > 100 µM | TGI [11]: > 100 µM | TGI [12]: > 100 µM | TGI [13]: > 100 µM | TGI [14]: > 100 µM | TGI [15]: > 100 µM | TGI [16]: > 100 µM | TGI [17]: > 100 µM | TGI [18]: > 100 µM | TGI [19]: > 100 µM | TGI [20]: > 100 µM | TGI [21]: > 100 µM | TGI [22]: > 100 µM | TGI [23]: > 100 µM | TGI [24]: > 100 µM | TGI [25]: > 100 µM | TGI [26]: > 100 µM | TGI [27]: > 100 µM | TGI [28]: 41.1 µM | TGI [29]: > 100 µM | TGI [30]: > 100 µM | TGI [31]: 8.79 µM | TGI [32]: > 100 µM | TGI [33]: > 100 µM | TGI [34]: > 100 µM | TGI [35]: > 100 µM | TGI [36]: > 100 µM | TGI [37]: 89.7 µM | TGI [38]: 33.5 µM | TGI [39]: > 100 µM | TGI [40]: > 100 µM | TGI [41]: > 100 µM | TGI [42]: > 100 µM | TGI [43]: > 100 µM | TGI [44]: > 100 µM | TGI [45]: > 100 µM | TGI [46]: > 100 µM | TGI [47]: > 100 µM | TGI [48]: > 100 µM | TGI [49]: 31.9 µM | TGI [50]: > 100 µM | TGI [51]: > 100 µM
